The results in this text go back to patent EP4775582A1, “MACROCYCLIC COMPOUND AND ANTIBODY-DRUG CONJUGATE THEREOF” (Genfleet Therapeutics (Shanghai) Inc., priority 2023, dated 2025).

For one series, the target named is KRAS WT-cRAF (Homo sapiens, UniProt P01116+P62937). The experiment in a line: Assay for binding of KRAS to cRAF (HTRF, with Cyclophilin A), KRAS WT. On the technique in general: In TR-FRET formats the signal depends on donor and acceptor labels being close together.
Another series relates to AsPC-1 p-ERK. The experiment in a line: Cell p-ERK assay (HTRF), AsPC-1 cells. The series is classed as cell-based, human. Particulars: Homo sapiens. The essentials: (§1)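 Phospho-ERK (T202/Y204) was measured by HTRF in lysates after 3 h compound treatment at 37 °C. Cells had been plated the previous day at 20000 per well for NCI-H441 and 10000 per well for AsPC-1. Four-parameter dose-response fitting of % inhibition gave IC50 values.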

The next series concerns NCI-H441 cells. The experiment in a line: 3D cell proliferation assay (CellTiter Glo-3D), NCI-H441. The series is classed as cell-based, human. The settings on record: Homo sapiens, 120 h, NCI-H441 cells (KRAS G12V), 2% FBS, 5 days, read-out: H441 AP IC50. In outline: (§2)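 IC50 values come from four-parameter fits of inhibition rate against log compound concentration, using CellTiter-Glo luminescence read after 5 days' exposure. AsPC-1 and NCI-H441 were plated at 800 cells per well in low-serum (2% FBS) medium. Compound was dosed the day after seeding, with incubation at 37 °C, 5% CO2.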
Background: Cellular ATP, detected with luciferase, serves as a proxy for viable cell number.

The test system of the next series is AsPC-1 cells. The experiment in a line: 3D cell proliferation assay (CellTiter Glo-3D), AsPC-1. In kind it is cell-based, human. Particulars: Homo sapiens, ASPC1, 120 h. In outline:
as §2

Another series deals with KRAS G12V-cRAF (Homo sapiens, UniProt P01116+P62937, G12V). Briefly: Assay for binding of KRAS to cRAF (HTRF, with Cyclophilin A), KRAS G12V.
Sequence of KRAS G12V-cRAF (P01116 1-188 isoform P01116-2 G12V): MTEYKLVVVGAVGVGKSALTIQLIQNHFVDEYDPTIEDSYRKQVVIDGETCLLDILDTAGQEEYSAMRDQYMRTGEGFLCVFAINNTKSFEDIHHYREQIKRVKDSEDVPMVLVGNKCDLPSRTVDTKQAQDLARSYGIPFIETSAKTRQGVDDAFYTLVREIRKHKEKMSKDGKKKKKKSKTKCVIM
Sequence of KRAS G12V-cRAF (P62937 whole entry): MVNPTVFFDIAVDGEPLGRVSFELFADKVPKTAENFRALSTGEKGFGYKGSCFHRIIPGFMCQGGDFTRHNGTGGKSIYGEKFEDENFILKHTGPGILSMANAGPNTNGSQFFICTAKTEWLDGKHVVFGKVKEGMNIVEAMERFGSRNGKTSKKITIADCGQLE
Series [1] in a line: Human liver microsomal stability experiment. The series is classed as in vitro ADME. Particulars: human liver microsomes; for CLint scaled: 45 mg/g, 20.7 g/kg scaling. The procedure: This experiment was intended to investigate the metabolic stability of the test compounds in human liver microsomes. The materials used in the experiment included 10 mM solutions of the test compounds and the control sample, human liver microsomes, and reduced nicotinamide adenine dinucleotide phosphate (NADPH) powder. In the experiment, a 100 mM potassium phosphate buffer was used as the buffer system.
The liver microsome working solution was prepared by diluting the liver microsome stock solution to 0.75 mg/mL using the 100 mM potassium phosphate buffer. Then, 5 µL of the 10 mM stock solution of the test compound was taken, and 195 µL of methanol was added. The mixture was well mixed to prepare a working solution A with a concentration of 0.25 mM. Subsequently, the working solution A was diluted to 1.5 µM using the liver microsome working solution to prepare a compound-liver microsome mixed solution. Additionally, NADPH powder was dissolved in 100 mM potassium phosphate buffer to prepare a 6 mM NADPH solution. The compound-liver microsome mixed solution was dispensed into a 96-well plate at 30 µL/well, with labeled time points of 0 min, 30 min, and 60 min. For 0-min samples, 180 µL of acetonitrile containing 100 ng/mL tolbutamide and 15 µL of the NADPH solution were added directly. The 96-well plate and the NADPH solution were then preheated under a 37 °C water bath for 5 min. After the preheating, 15 µL of the NADPH solution was added to each of the 30-min and 60-min sample wells. The plate was gently shaken for mixing and then incubated under the 37 °C water bath for the corresponding time. After the incubation was completed, 180 µL of acetonitrile containing 100 ng/mL tolbutamide was added to each sample well. The plate was sealed with a sealing film, shaken for 10 min (800 rpm/min), and then centrifuged for 15 min (4000 rpm). After the centrifugation, 50 µL of the supernatant was taken and added to a 96-well plate containing 150 µL of deionized water, and then the plate was sealed and shaken for 10 min (800 rpm) for uniform mixing. Subsequently, sample analysis was performed using liquid chromatography-tandem mass spectrometry (LC-MS/MS). […] For humans, the microsome protein-to-liver weight ratio was 45 mg/g, and the liver-to-body weight ratio was 20.7 g/kg.
(In general: Liver microsomes are a subcellular fraction often used to study metabolism.)

The test system of a further series is H441 p-ERK. The experiment in a line: Cell p-ERK assay (HTRF), NCI-H441 cells. Particulars: Homo sapiens; NCI-H441 cells (KRAS G12V), 3 h incubation. The series is classed as cell-based, human. In outline:
as §1

The nature of series [2]: Solubility experiment (HPLC, external standard). The series is classed as physicochemical. The settings on record: for solubility at 24 h: pH 7.4 medium, pH 7.4, pH 7.4 medium, 37 °C. In outline: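 Solid compound (about 1 mg per 1 mL medium) was shaken at 37 °C for 24 h in pH 1.2, 4.5 or 7.4 media, then centrifuged and the supernatant diluted with acetonitrile/water 50/50. Concentration in μg/mL was found by HPLC against an external standard prepared from a DMSO stock.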

[3] abbreviates: KRAS WT-cRAF binding assay(nM), GPPNP-KRAS WT, IC50 values.
The mark [4] stands for this setting: ASPC1, AsPC-1 cells (KRAS G12D), 3 h incubation, read-out: AsPC-1 p-ERK IC50.
[5] abbreviates: AsPC-1 cells (KRAS G12D), 3D, 2% FBS, 5 days, read-out: AsPC-1 AP IC50.
The mark [6] stands for this setting: KRAS G12V-cRAF binding assay(nM), GPPNP-KRAS G12V, IC50 values.
The mark [7] stands for this setting: read-out: KRAS WT-cRAF binding assay, GPPNP-KRAS WT, IC50 values.
Setting [8] is: read-out: KRAS G12V-cRAF binding assay, GPPNP-KRAS G12V, IC50 values.

Converted amounts (≈) assume the structure as drawn. Where two headings read alike, the source gives them in different places.

Sequence of KRAS WT-cRAF (P01116 1-188 isoform P01116-2): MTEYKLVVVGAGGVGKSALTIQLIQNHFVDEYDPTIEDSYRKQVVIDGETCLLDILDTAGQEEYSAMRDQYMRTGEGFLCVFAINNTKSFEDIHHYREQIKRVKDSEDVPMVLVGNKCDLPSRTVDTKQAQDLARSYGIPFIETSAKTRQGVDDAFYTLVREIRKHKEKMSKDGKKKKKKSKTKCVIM
Sequence of KRAS WT-cRAF (P62937 whole entry): as the sequence (P62937 whole entry) above
Method for KRAS G12V-cRAF: (§3) The plate was centrifuged at 1000 rpm for 1 min and then incubated in the thermostatic incubator at 20 °C for 30 min. […] The plate was centrifuged at 1000 rpm for 1 min and then incubated in the thermostatic incubator at 20 °C for 60 min. […] The working solution was added to the aforementioned assay plate at 5 µL/well. The plate was centrifuged at 1000 rpm for 1 min and then incubated in the thermostatic incubator at 20 °C for 60 min.
Method for KRAS WT-cRAF: as §3

As to `CCn1c(-c2cc(C#CCN3CCC(O)CC3)cnc2C(C)OC)c2c3cc(ccc31)-c1csc(n1)CC(NC(=O)C1C(C)C1C)C(=O)N1CCCC(N1)C(=O)OCC(C)(C)C2` (atropisomer, axis not shown; (Ra)) [Compound Z11, (1r,2R,3S)-N-((6^3S,4S,Z)-1^1-ethyl-(Ra)-1^2-(5-(3-(4-hydroxypiperidin-1-yl)prop-1-yn-1-yl)-2-((S)-1-methoxyethyl)pyridin-3-yl)-10,10-dimethyl-5,7-dioxo-6^1,6^2,6^3,6^4,6^5,6^6-hexahydro-1^1H-8-oxa-2(4,2)-thiazola-1(5,3)-indola-6(1,3)-pyridazinacycloundecaphane-4-yl)-2,3-dimethylcyclopropane-1-carboxamide], the IC50 on KRAS WT-cRAF (setting [3]) was determined as 27.7 nM; in the series on AsPC-1 p-ERK (setting [4]), 0.11 nM; in the series on NCI-H441 cells, 0.1 nM; with AsPC-1 cells (setting [5]) it was 0.15 nM; on KRAS G12V-cRAF (setting [6]) it was 12.3 nM; in the series with H441 p-ERK, 0.21 nM. In series [1] (NADPH, 37 °C), this molecule gave a half-life at 1 µM of 30.3 min. In addition, in series [1], the intrinsic metabolic clearance (CLint scaled) was 3.17 L/h/kg.
As to `CCn1c(-c2cc(C#CCN3CCN(C(=O)CN)CC3)cnc2C(C)OC)c2c3cc(ccc31)-c1csc(n1)CC(NC(=O)C1C3COCC31)C(=O)N1CCCC(N1)C(=O)OCC(C)(C)C2` (atropisomer, axis not shown; (Ra)) [Compound Z47, (1R,5S,6r)-N-((6^3S,4S,Z)-1^1-ethyl-(Ra)-1^2-(5-(3-(4-glycylpiperazin-1-yl)prop-1-yn-1-yl)-2-((S)-1-methoxyethyl)pyridin-3-yl)-10,10-dimethyl-5,7-dioxo-6^1,6^2,6^3,6^4,6^5,6^6-hexahydro-1^1H-8-oxa-2(4,2)-thiazola-1(5,3)-indola-6(1,3)-pyridazinacycloundecaphane-4-yl)-3-oxabicyclo[3.1.0]hexane-6-carboxamide], the concentration for half-maximal inhibition (IC50) on KRAS WT-cRAF (setting [3]) was found to be 34.4 nM; with AsPC-1 p-ERK (setting [4]), 2.33 nM; in the series on NCI-H441 cells it was 0.75 nM; with AsPC-1 cells (setting [5]), 1.2 nM; on KRAS G12V-cRAF (setting [6]), 19.3 nM; with H441 p-ERK it was 0.58 nM. This molecule displayed a solubility at 24 h in series [2] of 0.109 mg/mL (≈ 118 µM).
For `CCn1c(-c2cc(C#CCN3CCN(C(=O)CO)CC3)c[n+]([O-])c2C(C)OC)c2c3cc(ccc31)-c1csc(n1)CC(NC(=O)C1C(C)C1C)C(=O)N1CCCC(N1)C(=O)OCC(C)(C)C2` (atropisomer, axis not shown; (Ra)) [Compound Z48, (Ra)-3-((6^3S,4S,Z)-4-((1r,2R,3S)-2,3-dimethylcyclopropane-1-carboxamido)-1^1-ethyl-10,10-dimethyl-5,7-dioxo-6^1,6^2,6^3,6^4,6^5,6^6-hexahydro-1^1H-8-oxa-2(4,2)-thiazola-1(5,3)-indola-6(1,3)-pyridazinacycloundecaphane-1^2-yl)-5-(3-(4-(2-hydroxyacetyl)piperazin-1-yl)prop-1-yn-1-yl)-2-((S)-1-methoxyethyl)pyridine 1-oxide], the IC50 amounted to 31.3 nM on KRAS WT-cRAF (setting [3]); 4.7 nM in the series on AsPC-1 p-ERK (setting [4]); 1.99 nM with NCI-H441 cells; 5.06 nM in the series with AsPC-1 cells (setting [5]); 9.05 nM at KRAS G12V-cRAF (setting [6]); 1.66 nM in the series with H441 p-ERK. In series [2], this molecule showed a solubility at 24 h of 0.0712 mg/mL (≈ 77.1 µM).
With `CCn1c(-c2cc(C#CCN3CCS(=O)(=O)CC3)cnc2[C@H](C)NC)c2c3cc(ccc31)-c1csc(n1)C[C@H](NC(=O)[C@H]1[C@H](C)[C@@H]1C)C(=O)N1CCC[C@H](N1)C(=O)OCC(C)(C)C2` (atropisomer, axis not shown; (Ra)) [Compound Z66, (1r,2R,3S)-N-((6^3S,4S,Z)-(Ra)-1^2-(5-(3-(1,1-dioxidothiomorpholino)prop-1-yn-1-yl)-2-((S)-1-(methylamino)ethyl)pyridin-3-yl)-1^1-ethyl-10,10-dimethyl-5,7-dioxo-6^1,6^2,6^3,6^4,6^5,6^6-hexahydro-1^1H-8-oxa-2(4,2)-thiazola-1(5,3)-indola-6(1,3)-pyridazinacycloundecaphane-4-yl)-2,3-dimethylcyclopropane-1-carboxamide], the 50% inhibitory concentration (IC50) on KRAS WT-cRAF (setting [7]) was 19.5 nM; in the series with AsPC-1 p-ERK (ASPC1, 3 h, read-out: AsPC-1 p-ERK IC50(nM)), 0.3 nM; with NCI-H441 cells it was 0.11 nM; in the series with AsPC-1 cells (read-out: AsPC-1 AP IC50(nM)), 0.12 nM; on KRAS G12V-cRAF (setting [8]) it was 8.54 nM; in the series with H441 p-ERK, 0.32 nM. For the same molecule, the “Solubility at pH 7.4 (µg/mL)” value in series [2] (ph 7.4 medium, pH 7.4, 1440 min) came to 66.54 µg/mL.
Consider `CCn1c(-c2cc(C#CCN3CCC(C#N)(CN)CC3)cnc2[C@H](C)OC)c2c3cc(ccc31)-c1csc(n1)C[C@H](NC(=O)[C@H]1[C@H](C)[C@@H]1C)C(=O)N1CCC[C@H](N1)C(=O)OCC(C)(C)C2` (atropisomer, axis not shown; (Ra)) [Compound Z181, (1r,2R,3S)-N-((6^3S,4S,Z)-1^2-(Ra)-(5-(3-(4-(aminomethyl)-4-cyanopiperidin-1-yl)prop-1-yn-1-yl)-2-((S)-1-methoxyethyl)pyridin-3-yl)-1^1-ethyl-10,10-dimethyl-5,7-dioxo-6^1,6^2,6^3,6^4,6^5,6^6-hexahydro-1^1H-8-oxa-2(4,2)-thiazola-1(5,3)-indola-6(1,3)-pyridazinacycloundecaphan-4-yl)-2,3-dimethylcyclopropane-1-carboxamide], for which the IC50 was found to be 36.4 nM on KRAS WT-cRAF (setting [7]) and 13.1 nM on KRAS G12V-cRAF (setting [8]). Also, the half-life in series [1] (NADPH, 37 °C) turned out to be 43.4 min. This molecule returned an intrinsic metabolic clearance (CLint scaled) in series [1] of 2.21 L/h/kg.
`CCn1c(-c2cc(C#CCN3CCC(C#N)(CN)CC3)cnc2[C@H](C)OC)c2c3cc(ccc31)-c1coc(n1)C[C@H](NC(=O)[C@H]1[C@H](C)[C@@H]1C)C(=O)N1CCC[C@H](N1)C(=O)OCC(C)(C)C2` (atropisomer, axis not shown; (Ra)) [Compound Z182]: the IC50 at KRAS WT-cRAF (setting [7]) is 34.5 nM; at KRAS G12V-cRAF (setting [8]), 13 nM. This molecule also gave a half-life in series [1] (NADPH, 37 °C) of 16.4 min. The CLint scaled in series [1] amounted to 5.87 L/h/kg.
For `CCn1c(-c2cc(C#CCN3CCC(C#N)CC3)cnc2[C@H](C)OC)c2c3cc(ccc31)-c1csc(n1)C[C@H](NC(=O)[C@H]1[C@H](C)[C@@H]1C)C(=O)N1CCC[C@H](N1)C(=O)OCC(C)(C)C2` (atropisomer, axis not shown; (Ra)) [Compound Z282, (1r,2R,3S)-N-((6^3S,4S,Z)-1^2-(5-(3-(4-cyanopiperidin-1-yl)prop-1-yn-1-yl)-(Ra)-2-((S)-1-methoxyethyl)pyridin-3-yl)-1^1-ethyl-10,10-dimethyl-5,7-dioxo-6^1,6^2,6^3,6^4,6^5,6^6-hexahydro-1^1H-8-oxa-2(4,2)-thiazola-1(5,3)-indola-6(1,3)-pyridazinacycloundecaphan-4-yl)-2,3-dimethylcyclopropane-1-carboxamide], the IC50 was 14.8 nM at KRAS WT-cRAF (setting [7]) and 5.48 nM at KRAS G12V-cRAF (setting [8]). In series [1] (NADPH, 37 °C), this molecule came in with a half-life of 18.1 min. Further, in series [1], the CLint scaled was determined as 5.31 L/h/kg.

As usually defined, the IC50 is the concentration that inhibits the measured activity by half. What is called half-life is the time needed for the level to fall by half in the phase considered. A lower half-life goes with fast loss. As a reminder, the CLint scaled is the rate of metabolic loss divided by the concentration. A higher CLint scaled goes with faster metabolism. Broadly, the solubility is how much of the substance goes into solution per volume. Usually Solubility stands for the dissolved amount per volume that the medium holds. Higher therefore signals a readily soluble substance.
